This is an account of results in patent US7776918B2, “Remedy for viral disease” (Chugai Seiyaku Kabushiki Kaisha, priority 2003, dated 2010).

Some results are limits rather than exact numbers.

Series [1] relates to Firefly luciferase HCV replicon cells (3-1). Nature of the series: Replicon assay (firefly luciferase HCV replicon). It is filed as cell-based. The following applies: Hepatitis C virus, 72 h; luciferase luminescence after 3 days culture with compound, Huh7-derived replicon cells. How it is done:
A construct was prepared in which luciferase gene derived from firefly was inserted as a reporter gene in HCV-RNA to assay the number of copies of HCV-RNA. The luciferase gene was inserted in a form that fuses with the neomycin resistance gene directly below IRES (Internal Ribosome Entry Site) of HCV gene in accordance with the method of Krieger, et al. (J. Virol. 75: 4614). After synthesizing the RNA in vitro, it was introduced into Huh7 cells by electroporation followed by isolation as G418 resistant clone.
(§1) Firefly luciferase HCV replicon cells (3-1) were suspended in Dulbecco's MEM (Gibco Cat. No. 10569-010) containing 5% fetal calf serum (Hyclone Cat. No. SH30071.03) and inoculated into a 96-well plate at 5000 cells/well followed by culturing overnight at 5% CO2 and 37° C. After about 20 hours, 10 μl of a diluted compound was added to each well followed by additional culturing for 3 days. Two series of the assay plates were prepared, and assay was conducted using white plates for one series while using clear plates for the other series. Following completion of culturing, the white plates were used with the Steady-Glo Luciferase Assay System (Promega Cat. No. E2520). More specifically, 100 μl of reagent was placed in each well and after mixing 3 to 4 times with a pipette and allowing to stand for 5 minutes, luminescence was measured with the 1450 MicroBeta TRILUX (WALLAC). The value in the absence of cell addition was used to indicate the background value, and that value was subtracted from all values to calculate the IC50 value (concentration resulting in 50% inhibition) of the drug based on 0% inhibition for the value obtained in the absence of drug addition.
A general note: In antiviral work, replicon cells carry a viral genome segment that copies itself.

Series [2] is described as follows: Cytotoxicity test (Cell Counting Kit-8). The format is cell-based. The following applies: human, Firefly luciferase HCV replicon cells (3-1); Cell Counting Kit-8, absorbance 450 nm, after 3 days culture with compound. The protocol:
as §1
(§2) The Cell Counting Kit-8 (Dojindo Cat. No. CK04) was used for measurement of cytotoxicity. More specifically, 10 μl of the Cell Counting Kit-8 was added to the clear plates followed by incubating at 37° C. for 30 to 60 minutes. Absorbance at a wavelength of 450 nm and control wavelength of 630 nm was measured with a 96-well plate reader. The value obtained in the absence of cell addition was used as a background value, and that value was subtracted from all values to calculate the CC50 value (concentration resulting in 50% cell inhibition) of the drug based on 0% inhibition for the value obtained in the absence of drug addition.

The test system of a further series is immune reactions. As to conditions: known from WO98/56755; cited from earlier work.
Another series relates to Cryptococcus neoformans. As to conditions: known from WO98/56755; cited from earlier work.
In another series the test system is Candida albicans. As to conditions: known from WO98/56755; cited from earlier work.
Series [3] relates to Firefly luciferase HCV replicon cells (3-1). Nature of the series: Cytotoxicity test (Cell Counting Kit-8). It is filed as cell-based. As to conditions: Cell Counting Kit-8, absorbance 450 nm, after 3 days culture with compound. How it is done: as §1, §2
(Tetrazolium assays rely on reduction of a dye to a coloured formazan, in cell work by metabolically active cells.)

Usually IC50 stands for the concentration needed to halve the response being measured. Broadly, the CC50 is the concentration at which the toxic effect on the cells reaches its halfway point.

Take `CCCCCCCCCCCCCC/C=C/[C@H](C(=O)N[C@@H](Cc1ccc(OCC=C(C)C)cc1)C(=O)O)[C@@](O)(CC(=O)O)C(=O)O` (mixture of isomers) [Compound 13]: the IC50 in series [1] was 100 nM. In series [2], the CC50 at 3 days was more than 50000 nM.
As for `CCCCCCCC(=O)CCCCCC/C=C/[C@H](C(=O)N[C@@H](Cc1ccc(OCC=C(C)C)cc1)C(=O)O)[C@@](O)(CC(=O)O)C(=O)O` [Compound 1], the IC50 in series [1] stood at 2 nM. The CC50 at 3 days in series [2] was more than 5000 nM. Further, the “effects that inhibit immune reactions” value in the series on immune reactions was “inhibit immune reactions”. Also, in the series with Cryptococcus neoformans, the “antimicrobial activity against Cryptococcus neoformans” value is on record as “antimicrobial activity”. Moreover, in the series on Candida albicans, the “antimicrobial activity against Candida albicans” value is given as “antimicrobial activity”.
`CCCCCCCC(=O)CCCCCC/C=C/[C@H](C(=O)N[C@@H](Cc1ccc(OCC=C(C)C)cc1)C(=O)O)[C@@](O)(CC(=O)OC)C(=O)O` [Compound 2]: the IC50 in series [1] is 128 nM. Besides, the CC50 at 3 days in series [2] was more than 1000 nM.
Consider `CCCCCCCC(=O)CCCCCC/C=C/[C@H](C(=O)N[C@@H](Cc1ccc(OCC=C(C)C)cc1)C(=O)OC)[C@@](O)(CC(=O)OC)C(=O)O` [Compound 3], for which, in series [1], the IC50 was 76 nM. Also, in series [2], the CC50 at 3 days was more than 1000 nM.
As for `CCCCCCC(O)C(=O)CCCCCC/C=C/[C@H](C(=O)N[C@@H](Cc1ccc(O)cc1)C(=O)O)[C@@](O)(CC(=O)O)C(=O)O` (stereo partly shown) [Compound 4], in series [1], the IC50 is 103 nM. Also, the half-maximal cytotoxic concentration (CC50) at 3 days in series [2] is more than 1000 nM.
On the same counts, the results for `CCCCCCCC(=O)CCCCCC/C=C/[C@H](C(=O)N[C@@H](Cc1c[nH]c2ccccc12)C(=O)O)[C@@](O)(CC(=O)O)C(=O)O` [Compound 5] are 82 nM and more than 1000 nM.
`CCCCCCC(O)C(=O)CCCCCC/C=C/[C@H](C(=O)N[C@@H](Cc1ccc(OCC=C(C)C)cc1)C(=O)O)[C@@](O)(CC(=O)O)C(=O)O` (stereo partly shown) [Compound 6]: the IC50 in series [1] stood at 7 nM. Moreover, the CC50 at 3 days in series [2] was more than 1000 nM.
As to `CCCCCCCC(=O)CCCCCC/C=C/[C@H](C(=O)N[C@@H](Cc1ccc(OCCC(C)C)cc1)C(=O)O)[C@@](O)(CC(=O)O)C(=O)O` [Compound 7], in series [1], the IC50 was 2 nM. Moreover, the CC50 at 3 days in series [2] is more than 5000 nM.
On the same counts, the results for `CCCCCCCC(O)CCCCCC/C=C/[C@H](C(=O)N[C@@H](Cc1ccc(OCC=C(C)C)cc1)C(=O)O)[C@@](O)(CC(=O)O)C(=O)O` (stereo partly shown) [Compound 8] are 5 nM and more than 5000 nM.
On to `CCCCCCCC(=O)CCCCCC/C=C/[C@H](C(=O)N[C@@H](Cc1ccc(O)cc1)C(=O)O)[C@@](O)(CC(=O)O)C(=O)O` [Compound 9], for which the IC50 in series [1] was found to be 20 nM. Moreover, the CC50 at 3 days in series [2] was more than 5000 nM.
For `CCCCCCCC(=O)CCCCCCCC[C@H](C(=O)N[C@@H](Cc1ccc(O)cc1)C(=O)O)[C@@](O)(CC(=O)O)C(=O)O` [Compound 10], in series [1], the IC50 was determined as 245 nM. The CC50 at 3 days in series [2] is more than 50000 nM.
On the same counts, the results for `CCCCCCCC(=O)CCCCCC/C=C/[C@H](C(=O)N[C@@H](Cc1ccc(OCC=C(C)C)cc1)C(N)=O)[C@@](O)(CC(N)=O)C(N)=O` [Compound 11] are 262 nM and more than 5000 nM.
Consider `CCCCCCCC(=O)CCCCCCCC[C@H](C(=O)N[C@@H](Cc1ccc(OCCC(C)C)cc1)C(=O)O)[C@@](O)(CC(=O)O)C(=O)O` [Compound 12], for which, in series [1], the IC50 came out at 72 nM. Further, the CC50 at 3 days in series [2] was more than 5000 nM.
Take `CCCCCCC/C(CCCCCC/C=C/[C@H](C(=O)N[C@@H](Cc1ccc(OCC=C(C)C)cc1)C(=O)O)[C@@](O)(CC(=O)O)C(=O)O)=N/OCCN` [Compound 14]: the IC50 in series [1] came to 20 nM. Moreover, the CC50 at 3 days in series [2] turned out to be 22000 nM.
On the same counts, the results for `CCCCCCCC(CCCCCC/C=C/[C@H](C(=O)N[C@@H](Cc1ccc(OCC=C(C)C)cc1)C(=O)O)[C@@](O)(CC(=O)O)C(=O)O)=NOC` [Compound 15] are 20 nM and more than 50000 nM.
For `CC#CCOc1ccc(C[C@H](NC(=O)[C@@H](/C=C/CCCCCCC(=O)CCCCCCC)[C@@](O)(CC(=O)O)C(=O)O)C(=O)O)cc1` [Compound 21], in series [3], the CC50 is more than 5000 nM.
Same read-out and setting: the figure for `CCCCCCCC(=O)CCCCCC/C=C/[C@H](C(=O)N[C@@H](Cc1ccc(OC)c(OC)c1)C(=O)O)[C@@](O)(CC(=O)O)C(=O)O` [Compound 22] is more than 1000 nM.
Consider `CCCCCCCC(=O)CCCCCC/C=C/[C@H](C(=O)N[C@@H](Cc1ccc(OCCCC)cc1)C(=O)O)[C@@](O)(CC(=O)O)C(=O)O` [Compound 23], for which the IC50 in series [1] came out at 1 nM. In addition, the CC50 at 3 days in series [2] is more than 1000 nM.
On the same counts, the results for `CCCCCCCC(=O)CCCCCC/C=C/[C@H](C(=O)N[C@@H](Cc1ccc(OCCC)cc1)C(=O)O)[C@@](O)(CC(=O)O)C(=O)O` [Compound 24] are 2 nM and more than 1000 nM.
On the same counts, the results for `C=CCOc1ccc(C[C@H](NC(=O)[C@@H](/C=C/CCCCCCC(=O)CCCCCCC)[C@@](O)(CC(=O)O)C(=O)O)C(=O)O)cc1` [Compound 25] are 1 nM and more than 1000 nM.
On the same counts, the results for `CCCCCCCC(=O)CCCCCC/C=C/[C@H](C(=O)N[C@@H](Cc1ccc(OC)cc1)C(=O)O)[C@@](O)(CC(=O)O)C(=O)O` [Compound 26] are 3 nM and more than 1000 nM.
